Results: patent US9624170B2, “4-(piperrazin-1-yl)-pyrrolidin-2-one compounds as monoacylglycerol lipase (MAGL) inhibitors” (TAKEDA PHARMACEUTICAL COMPANY LIMITED, priority 2013, dated 2017)

Target: T1, human MAGL (His-hMAGL) (Homo sapiens, UniProt Q99685)
T1 construct: made in house; host or cells: Escherichia coli BL21(DE3)
T1 sequence (Q99685 1-303): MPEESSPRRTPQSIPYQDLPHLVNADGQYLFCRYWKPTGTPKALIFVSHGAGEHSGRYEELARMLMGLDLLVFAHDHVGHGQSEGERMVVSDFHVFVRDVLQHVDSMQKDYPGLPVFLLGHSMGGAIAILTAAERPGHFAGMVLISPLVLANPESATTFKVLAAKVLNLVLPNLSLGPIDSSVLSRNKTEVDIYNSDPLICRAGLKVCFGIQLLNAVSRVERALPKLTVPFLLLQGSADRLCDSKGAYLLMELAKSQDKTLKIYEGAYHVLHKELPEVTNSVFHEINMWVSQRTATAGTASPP
Experiment: Measurement of MAGL inhibitory activity by mass spectrometry
Format: biochemical
Settings: MAGL inhibitory rate, test compound 10 μM, His-hMAGL, substrate 2-arachidonylglycerol, RapidFire-mass spectrometry
Summary of the method: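 His-tagged human MAGL was reacted with 150 μM 2-arachidonylglycerol substrate (stock, added by 5 μL) for 10 min at room temperature, then stopped with formic acid. Arachidonic acid product was quantified by RapidFire–triple-quadrupole MS in negative SRM mode, corrected by arachidonic acid-d8, and converted to percent inhibition.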

Compound	inhibition at 10 µM
CC(C)(C)OC(=O)N1CCc2cc(N3CC(N4CCN(C(=O)c5nccs5)CC4)CC3=O)ccc21 (centres unmarked) [Example 372, tert-Butyl 5-(2-oxo-4-(4-(1,3-thiazol-2-ylcarbonyl)piperazin-1-yl)pyrrolidin-1-yl)indoline-1-carboxylate]	101%
O=C(c1nccs1)N1CCN(C2CC(=O)N(c3ccc4c(c3)CCN4C(=O)C(F)(F)F)C2)CC1 (centres unmarked) [Example 373, 4-(4-(1,3-Thiazol-2-ylcarbonyl)piperazin-1-yl)-1-(1-(trifluoroacetyl)-2,3-dihydro-1H-indol-5-yl)pyrrolidin-2-one]	96%
O=C(c1nccs1)N1CCN(C2CC(=O)N(c3ccc4c(c3)CCN4)C2)CC1 (centres unmarked) [Example 374, 1-(2,3-Dihydro-1H-indol-5-yl)-4-(4-(1,3-thiazol-2-ylcarbonyl)piperazin-1-yl)pyrrolidin-2-one]	81%
O=C(c1nccs1)N1CCN(C2CC(=O)N(c3ccc4c(c3)CCN4C3CC3)C2)CC1 (centres unmarked) [Example 375, 1-(1-Cyclopropyl-2,3-dihydro-1H-indol-5-yl)-4-(4-(1,3-thiazol-2-ylcarbonyl)piperazin-1-yl)pyrrolidin-2-one]	95%
O=C1CC(N2CCN(c3ncccn3)CC2)CN1c1ccc2c(c1)CCN2c1ccnc(C(F)(F)F)c1 (centres unmarked) [Example 377, 4-(4-(pyrimidin-2-yl)piperazin-1-yl)-1-(1-(2-(trifluoromethyl)pyridin-4-yl)-2,3-dihydro-1H-indol-5-yl)pyrrolidin-2-one]	97%
O=C1CC(N2CCN(c3ncccn3)CC2)CN1c1ccc2c(c1)CCN2c1ncc(C(F)(F)F)cn1 (centres unmarked) [Example 378, 4-(4-(Pyrimidin-2-yl)piperazin-1-yl)-1-(1-(5-(trifluoromethyl)pyrimidin-2-yl)-2,3-dihydro-1H-indol-5-yl)pyrrolidin-2-one]	95%
CC(C)(C)CC(=O)N1CCc2cc(N3CC(N4CCN(C(=O)c5nccs5)CC4)CC3=O)ccc21 (centres unmarked) [Example 382, 1-(1-(3,3-Dimethylbutanoyl)-2,3-dihydro-1H-indol-5-yl)-4-(4-(1,3-thiazol-2-ylcarbonyl)piperazin-1-yl)pyrrolidin-2-one]	99%
O=C(c1nccs1)N1CCN(C2CC(=O)N(c3ccc4c(c3)CCN4c3ccc(C(F)(F)F)cn3)C2)CC1 (centres unmarked) [Example 383, 4-(4-(1,3-thiazol-2-ylcarbonyl)piperazin-1-yl)-1-(1-(5-(trifluoromethyl)pyridin-2-yl)-2,3-dihydro-1H-indol-5-yl)pyrrolidin-2-one]	98%
O=C(c1cscn1)N1CCN([C@@H]2CC(=O)N(c3ccc4c(c3)CCN4c3ncc(C(F)(F)F)cn3)C2)CC1 [Example 384, (4R)-4-(4-(1,3-thiazol-4-ylcarbonyl)piperazin-1-yl)-1-(1-(5-(trifluoromethyl)pyrimidin-2-yl)-2,3-dihydro-1H-indol-5-yl)pyrrolidin-2-one]	99%
O=C(c1nccs1)N1CCN([C@@H]2CC(=O)N(c3ccc4c(c3)CCN4c3cc(C(F)(F)F)ncn3)C2)CC1 [Example 385, (4R)-4-(4-(1,3-thiazol-2-ylcarbonyl)piperazin-1-yl)-1-(1-(6-(trifluoromethyl)pyrimidin-4-yl)-2,3-dihydro-1H-indol-5-yl)pyrrolidin-2-one]	100%
O=C(c1nccs1)N1CCN(C2CC(=O)N(c3ccc4oc(-c5ccc(F)cc5)nc4c3)C2)CC1 (centres unmarked) [Example 386, 1-(2-(4-fluorophenyl)-1,3-benzoxazol-5-yl)-4-(4-(1,3-thiazol-2-ylcarbonyl)piperazin-1-yl)pyrrolidin-2-one]	99%
O=C(c1nccs1)N1CCN(C2CC(=O)N(c3ccc4nc(-c5ccccc5)oc4c3)C2)CC1 (centres unmarked) [Example 387, 1-(2-phenyl-1,3-benzoxazol-6-yl)-4-(4-(1,3-thiazol-2-ylcarbonyl)piperazin-1-yl)pyrrolidin-2-one]	97%
O=C(c1nccs1)N1CCN([C@@H]2CC(=O)N(c3ccc4c(c3)CCN4c3ccnc(C(F)(F)F)n3)C2)CC1 [Example 388, (4R)-4-(4-(1,3-thiazol-2-ylcarbonyl)piperazin-1-yl)-1-(1-(2-(trifluoromethyl)pyrimidin-4-yl)-2,3-dihydro-1H-indol-5-yl)pyrrolidin-2-one]	99%
CC(C)(C)OC(=O)N1CCc2cc(N3CC(N4CCN(c5ncccn5)CC4)CC3=O)ccc21 (centres unmarked) [Example 389, tert-butyl 5-(2-oxo-4-(4-(pyrimidin-2-yl)piperazin-1-yl)pyrrolidin-1-yl)indoline-1-carboxylate]	98%
O=C(c1nccs1)N1CCN([C@@H]2CC(=O)N(c3ccc4c(c3)CCN4c3cnc(C(F)(F)F)cn3)C2)CC1 [Example 390, (4R)-4-(4-(1,3-thiazol-2-ylcarbonyl)piperazin-1-yl)-1-(1-(5-(trifluoromethyl)pyrazin-2-yl)-2,3-dihydro-1H-indol-5-yl)pyrrolidin-2-one]	96%
O=C(c1nccs1)N1CCN([C@@H]2CC(=O)N(c3ccc4c(c3)CCN4c3cnc(C(F)(F)F)nc3)C2)CC1 [Example 391, (4R)-4-(4-(1,3-thiazol-2-ylcarbonyl)piperazin-1-yl)-1-(1-(2-(trifluoromethyl)pyrimidin-5-yl)-2,3-dihydro-1H-indol-5-yl)pyrrolidin-2-one]	90%
O=C(c1nccs1)N1CCN(C2CC(=O)N(c3ccc4c(c3)CCN4C(=O)Cc3ccccc3)C2)CC1 (centres unmarked) [Example 392, 1-(1-(phenylacetyl)-2,3-dihydro-1H-indol-5-yl)-4-(4-(1,3-thiazol-2-ylcarbonyl)piperazin-1-yl)pyrrolidin-2-one]	99%
O=C(c1nccs1)N1CCN(C2CC(=O)N(c3ccc4c(c3)CCN4C(=O)Cc3ccc(Cl)cc3)C2)CC1 (centres unmarked) [Example 393, 1-(1-((4-chlorophenyl)acetyl)-2,3-dihydro-1H-indol-5-yl)-4-(4-(1,3-thiazol-2-ylcarbonyl)piperazin-1-yl)pyrrolidin-2-one]	93%
O=C(c1nccs1)N1CCN(C2CC(=O)N(c3ccc4c(c3)CCN4C(=O)Cc3cccc(Cl)c3)C2)CC1 (centres unmarked) [Example 394, 1-(1-((3-Chlorophenyl)acetyl)-2,3-dihydro-1H-indol-5-yl)-4-(4-(1,3-thiazol-2-ylcarbonyl)piperazin-1-yl)pyrrolidin-2-one]	98%
O=C(c1nccs1)N1CCN(C2CC(=O)N(c3ccc4c(c3)CCN4C(=O)Cc3ccccc3Cl)C2)CC1 (centres unmarked) [Example 395, 1-(1-((2-chlorophenyl)acetyl)-2,3-dihydro-1H-indol-5-yl)-4-(4-(1,3-thiazol-2-ylcarbonyl)piperazin-1-yl)pyrrolidin-2-one]	102%
O=C(c1nccs1)N1CCN(C2CC(=O)N(c3ccc4c(c3)CCN4C(=O)c3ccccc3)C2)CC1 (centres unmarked) [Example 396, 1-(1-benzoyl-2,3-dihydro-1H-indol-5-yl)-4-(4-(1,3-thiazol-2-ylcarbonyl)piperazin-1-yl)pyrrolidin-2-one]	97%
CC(C)CC(=O)N1CCc2cc(N3CC(N4CCN(C(=O)c5nccs5)CC4)CC3=O)ccc21 (centres unmarked) [Example 397, 1-(1-(3-methylbutanoyl)-2,3-dihydro-1H-indol-5-yl)-4-(4-(1,3-thiazol-2-ylcarbonyl)piperazin-1-yl)pyrrolidin-2-one]	101%
O=C(c1nccs1)N1CCN(C2CC(=O)N(c3ccc4c(c3)CCN4C(=O)CC3CC3)C2)CC1 (centres unmarked) [Example 398, 1-(1-(cyclopropylacetyl)-2,3-dihydro-1H-indol-5-yl)-4-(4-(1,3-thiazol-2-ylcarbonyl)piperazin-1-yl)pyrrolidin-2-one]	100%
O=C(c1nccs1)N1CCN(C2CC(=O)N(c3ccc4c(c3)CCN4C(=O)CC(F)(F)F)C2)CC1 (centres unmarked) [Example 399, 4-(4-(1,3-thiazol-2-ylcarbonyl)piperazin-1-yl)-1-(1-(3,3,3-trifluoropropanoyl)-2,3-dihydro-1H-indol-5-yl)pyrrolidin-2-one]	95%
O=C(c1nccs1)N1CCN(C2CC(=O)N(c3ccc4c(c3)CCN4C(=O)C3CCOCC3)C2)CC1 (centres unmarked) [Example 400, 1-(1-(tetrahydro-2H-pyran-4-ylcarbonyl)-2,3-dihydro-1H-indol-5-yl)-4-(4-(1,3-thiazol-2-ylcarbonyl)piperazin-1-yl)pyrrolidin-2-one]	96%
O=C(c1nccs1)N1CCN(C2CC(=O)N(c3ccc4c(c3)CCN4C(=O)CC3CCOCC3)C2)CC1 (centres unmarked) [Example 401, 1-(1-(tetrahydro-2H-pyran-4-ylacetyl)-2,3-dihydro-1H-indol-5-yl)-4-(4-(1,3-thiazol-2-ylcarbonyl)piperazin-1-yl)pyrrolidin-2-one]	94%
O=C(c1nccs1)N1CCN([C@@H]2CC(=O)N(c3cc4ccn(-c5ccc(C(F)(F)F)cn5)c4cn3)C2)CC1 [Example 402, (4R)-4-(4-(1,3-thiazol-2-ylcarbonyl)piperazin-1-yl)-1-(1-(5-(trifluoromethyl)pyridin-2-yl)-1H-pyrrolo[2,3-c]pyridin-5-yl)pyrrolidin-2-one]	94%
O=C1CC(N2CCN(c3ncccn3)CC2)CN1c1cc(F)cc(Br)c1 (centres unmarked) [Example 403, 1-(3-Bromo-5-fluorophenyl)-4-(4-(pyrimidin-2-yl)piperazin-1-yl)pyrrolidin-2-one]	91%
Cc1ncccc1-c1cc(N2CC(N3CCN(c4ncccn4)CC3)CC2=O)ccc1F (centres unmarked) [Example 404, 1-(4-fluoro-3-(2-methylpyridin-3-yl)phenyl)-4-(4-(pyrimidin-2-yl)piperazin-1-yl)pyrrolidin-2-one]	96%
